Measured values published in article PMC12153338, “Resistance to oxyimino-cephalosporins conferred by an alternative mechanism of hydrolysis by the Acinetobacter-derived cephalosporinase-33 (ADC-33), a class C β-lactamase present in carbapenem-resistant Acinetobacter baumannii (CRAb)” (mBio, 2025).
In brackets after ≈: the same amount, converted by molar mass.

Legend:
Assay type in all cases: cell-based
[1] = test system: DH10B Escherichia coli pBCSK− no insert; experiment: MIC by broth microdilution, DH10B E. coli with pBCSK− no insert; details: DH10B E. coli with pBCSK− no insert (control strain), FDC in iron-depleted cation-adjusted MH broth
Experimental: (§1) Susceptibility testing to standard antibiotics was performed by broth microdilution according to 2024 Clinical and Laboratory Standards Institute (CLSI) guidelines ([38]). MICs for FDC were done in iron-depleted cation-adjusted Mueller-Hinton (MH) broth according to CLSI methods. All MICs were interpreted according to the 2024 CLSI guidelines ([38]). MICs are done in triplicate, and the mode MIC value is reported.
(§2) blaADC-7 pBCSK− was cloned and expressed in E. coli DH10B cells as previously described for MIC determinations ([3]). The pBCSK-non-inducible phagemid vector has a chloramphenicol resistance gene used to aid selection. All other blaADC variants were synthesized by GenScript according to the blaADC-7 pBCSK− strategy, cloning into the XbaI/BamHI sites of the pBCSK− vector ([5]).

DH10B alone = experiment: MIC by broth microdilution, DH10B alone; details: Escherichia coli; DH10B alone (control strain); FDC in iron-depleted cation-adjusted MH broth
Experimental: as §1, §2

[2] = test system: ADC-33 in DH10B Escherichia coli; experiment: MIC by broth microdilution, ADC-33 in DH10B E. coli; details: DH10B E. coli expressing ADC-33 (Adup) from pBCSK−, FDC in iron-depleted cation-adjusted MH broth, mode of triplicate
Experimental: as §1, §2

[3] = test system: ADC-217 in DH10B Escherichia coli; experiment: MIC by broth microdilution, ADC-217 in DH10B E. coli; details: DH10B E. coli expressing ADC-217 (non-Adup) from pBCSK−, FDC in iron-depleted cation-adjusted MH broth, mode of triplicate
Experimental: as §1, §2

[4] = test system: ADC-219 in DH10B Escherichia coli; experiment: MIC by broth microdilution, ADC-219 in DH10B E. coli; details: DH10B E. coli expressing ADC-219 (Adup) from pBCSK−, FDC in iron-depleted cation-adjusted MH broth, mode of triplicate
Experimental: as §1, §2

[5] = test system: ADC-218 in DH10B Escherichia coli; experiment: MIC by broth microdilution, ADC-218 in DH10B E. coli; details: DH10B E. coli expressing ADC-218 (Adup) from pBCSK−, FDC in iron-depleted cation-adjusted MH broth, mode of triplicate
Experimental: as §1, §2

[6] = test system: ADC-172 in DH10B Escherichia coli; experiment: MIC by broth microdilution, ADC-172 in DH10B E. coli; details: Escherichia coli; DH10B E. coli expressing ADC-172 (Adup) from pBCSK−; FDC in iron-depleted cation-adjusted MH broth; mode of triplicate; read-out: MIC
Experimental: as §1, §2

[7] = test system: ADC-73 in DH10B Escherichia coli; experiment: MIC by broth microdilution, ADC-73 in DH10B E. coli; details: DH10B E. coli expressing ADC-73 (non-Adup) from pBCSK−, FDC in iron-depleted cation-adjusted MH broth, mode of triplicate
Experimental: as §1, §2

[8] = test system: ADC-143 in DH10B Escherichia coli; experiment: MIC by broth microdilution, ADC-143 in DH10B E. coli; details: DH10B E. coli expressing ADC-143 (non-Adup) from pBCSK−, FDC in iron-depleted cation-adjusted MH broth, mode of triplicate
Experimental: as §1, §2

[9] = test system: ADC-7 in DH10B Escherichia coli; experiment: MIC by broth microdilution, ADC-7 in DH10B E. coli; details: DH10B E. coli expressing ADC-7 (non-Adup) from pBCSK−, FDC in iron-depleted cation-adjusted MH broth, mode of triplicate
Experimental: as §1, §2

[10] = test system: ADC-30 in DH10B Escherichia coli; experiment: MIC by broth microdilution, ADC-30 in DH10B E. coli; details: DH10B E. coli expressing ADC-30 (non-Adup) from pBCSK−, FDC in iron-depleted cation-adjusted MH broth, mode of triplicate
Experimental: as §1, §2

Row | Structure (SMILES) | MIC [1] [µg/mL] | MIC (DH10B alone) [µg/mL] | MIC [2] [µg/mL] | MIC [3] [µg/mL] | MIC [4] [µg/mL] | MIC [5] [µg/mL] | MIC [6] [µg/mL] | MIC [7] [µg/mL] | MIC [8] [µg/mL] | MIC [9] [µg/mL] | MIC [10] [µg/mL]
1 | CO/N=C(\C(=O)N[C@@H]1C(=O)N2C(C(=O)O)=C(COC(C)=O)CS[C@H]12)c1csc(N)n1 [CTX, cefotaxime] | 0.06 (≈ 0.132 µM) | 0.12 (≈ 0.263 µM) | 64 (≈ 141 µM) | 64 (≈ 141 µM) | 32 (≈ 70.3 µM) | 256 (≈ 562 µM) | 32 (≈ 70.3 µM) | 32 (≈ 70.3 µM) | 32 (≈ 70.3 µM) | 64 (≈ 141 µM) | 32 (≈ 70.3 µM)
2 | C[C@H]1[C@H](NC(=O)/C(=N\OC(C)(C)C(=O)O)c2csc(N)n2)C(=O)N1S(=O)(=O)O [ATM, aztreonam] | 0.12 (≈ 0.276 µM) | 0.25 (≈ 0.574 µM) | 64 (≈ 147 µM) | 8 (≈ 18.4 µM) | 32 (≈ 73.5 µM) | 256 (≈ 588 µM) | 32 (≈ 73.5 µM) | 2 (≈ 4.59 µM) | 16 (≈ 36.7 µM) | 8 (≈ 18.4 µM) | 8 (≈ 18.4 µM)
3 | C[C@@H](O)[C@H]1C(=O)N2C(C(=O)O)=C(SCCN=CN)C[C@H]12 [IPM, imipenem] | 0.25 (≈ 0.835 µM) |  |  |  |  |  |  |  |  |  | 
